Marks after values point to notes of the source that are not given here.
Tests used:
Assay type in all cases: cell-based, mouse
[1] = system: breast carcinoma F3II cells; assay: Effect on quiescent F3II cells / cytotoxicity (toluidine staining and MTT assay); conditions: absence of FBS; for cytotoxic effect: 100 μM, 24 hours, semiconfluent monolayers, toluidine and MTT assay; for IC50: Quiescent Cells, F3II, 24 hs
Experimental: (§1) The antiproliferative effect of the above mentioned compounds on breast carcinoma F3II cells is disclosed in the present example. The synthesized compounds are purine nucleoside derivatives which present chemical modifications in either the ribose and/or in the base. These modifications mainly consisted in acetylations of positions 2′-3′ of the ribose, varying the number of carbon atoms of the acyl substituents in position 5′. The cells were treated for 72 hours in the presence of fetal bovine serum 10% with different doses of the compounds, with the aim of determining the inhibitory concentration 50% (IC50). The cell growth was estimated by toluidine test, for which the cell monolayers were fixed with formalin (Formol 10%) and stained with toluidine blue 0.5%. Subsequently, the stained cells were thoroughly washed with PBS and solubilized with 1% SDS. Finally, the number of cells was estimated by measuring the absorbance values at 595 nm. The IC50 values of the compounds Nucl 1, Nucl 4 and Nucl 5, both for cells in the exponential growth phase and for quiescent cells, are depicted in Table 2.
In addition, the effect of the analogs showing antiproliferative effect on quiescent cells, was studied in order to discriminate between an antitumoral effect and an unspecific cytotoxic effect. For this purpose, the semiconfluent cell monolayers were incubated for 24 hours in the absence of FBS with the analogs Nucl 1, Nucl 4 and Nucl 5, at a concentration of 100 μM. Subsequently, the cells were fixed and stained with toluidine in order to determine the number of cells. Simultaneously, the cytotoxic effect was determined by the MTT assay.

[2] = system: breast carcinoma F3II cells; assay: Antiproliferative effect on growing F3II cells (toluidine test); conditions: 10% fetal bovine serum
Source text: as §1, with “The cells were treated for 72 hours in the presence of fetal bovine serum 10% with different doses of the compounds, with the aim of determining the inhibitory concentration 50% (IC50).” left out

[3] = system: breast carcinoma F3II cells; assay: Monolayer wound assay of tumor cell migration; conditions: for No of migrating cells: overnight, MEM with 10% FBS
Experimental: The present assay consists in the determination of the antimigration effect of the selected compounds on the breast carcinoma cells migration. Cell motility is a key process in the invasion and tumor metastasis processes and it is closely regulated by the Rho-GTPases family, particularly by Rac.
Tumor cell migration in vitro was measured by the “monolayer wound” assay described previously (Alonso D F, Farias E F, Urtreger A, Ladeda V, Vidal M C and Bal de Kier Joffé E: Characterization of F3II, a mammary sarcomatoid carcinoma cell line originated from a mouse adenocarcinoma. J. Surgh. Oncol 1996, 62: 288-297). 0.5 mm width lines were made in confluent monolayers. After washing with PBS, the tumor cells were incubated overnight in MEM with 10% FBS and the monolayers were fixed and stained with methylene blue. The number of cells that moved along the free space were counted by using a 0.36 mm^2 graded grid, using a magnification of 100×, in 3 independent fields per each line.
Doses from 1 to 50 μM of the compounds were assessed, thereby finding a saturation of the antimigration effect in the 3 compounds studied, starting from 10 μM, obtaining an approximate inhibition of 30 to 50% respectively.

| IC50 ([2]; 48 hs, read-out: IC50 48 hs) [µM] | IC50 ([2]; 72 hs, read-out: IC50 72 hs) [µM] | IC50 ([2]; Mus musculus, 48 hs, read-out: IC50 48 hs) [µM] | IC50 ([2]; Mus musculus, 72 hs, read-out: IC50 72 hs) [µM] | SMILES | cytotoxic effect [1] | IC50 [1] [µM] | Inhibition % (cell migration) ([3]; 10 μM) [%] | No of migrating cells ([3]; 10 μM) | IC50 ([1]; Mus musculus) [µM] | inhibition at 10 µM ([3]; Mus musculus) [%] |
| --- | --- | --- | --- | --- | --- | --- | --- | --- | --- | --- |
| 60 | 56 | – | – | CC(=O)OC[C@H]1O[C@@H](n2cnc3c(Cl)ncnc32)[C@H](OC(C)=O)[C@@H]1OC(C)=O [Nucl 4, 6-chloro-2′,3′,5′-tri-O-acetyl-purine riboside] | In none of the cases a cytotoxic effect was observed | > 100 | 40.6 | 85.5** | – | – |
| – | – | 26 | 68 | CC(=O)OC[C@H]1O[C@@H](n2cnc3c(=O)[nH]c(N)nc32)[C@H](OC(C)=O)[C@@H]1OC(C)=O [Nucl 1, 2′,3′,5′-tri-O-acetyl-guanosine] | In none of the cases a cytotoxic effect was observed | – | – | 97.7* | > 100 | 32.2 |

From US20090324708A1, “COMPOUND HAVING INHIBITORY ACTIVITY ON A RHO-GTPASE CELL PROTEIN, A PROCESS FOR OBTAINING THE SAME, PHARMACEUTICAL COMPOSITIONS COMPRISING THEREOF AND A METHOD FOR THE TREATMENT OF RHO-GTPASE CELL PROTEIN-MEDIATED CONDITION” (Universidad Nacional De Quilmes, priority 2006, published 2009)
